{"source": "paper PMC5452050", "about": "(ACS Omega, 2017)", "key": {"[1]": {"biological_target": "ABL1 (H396P)-phosphorylated (Homo sapiens, UniProt P00519, H396P)", "assay": "Kd determination", "type": "binding"}, "AURKA": {"biological_target": "AURKA (Homo sapiens, UniProt O14965)", "sequence (O14965 whole entry)": "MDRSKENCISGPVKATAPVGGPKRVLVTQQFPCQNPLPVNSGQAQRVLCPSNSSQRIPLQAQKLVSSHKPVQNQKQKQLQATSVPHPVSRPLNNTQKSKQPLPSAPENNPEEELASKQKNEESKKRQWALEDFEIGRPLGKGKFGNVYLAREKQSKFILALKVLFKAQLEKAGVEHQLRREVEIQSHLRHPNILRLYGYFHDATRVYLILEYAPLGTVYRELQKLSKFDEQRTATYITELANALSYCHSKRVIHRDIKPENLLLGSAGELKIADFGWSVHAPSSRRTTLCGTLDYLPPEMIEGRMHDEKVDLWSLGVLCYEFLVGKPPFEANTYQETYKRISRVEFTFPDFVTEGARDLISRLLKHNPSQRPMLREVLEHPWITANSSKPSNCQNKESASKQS", "assay": "Kd determination", "type": "binding"}, "AURKC": {"biological_target": "AURKC (Homo sapiens, UniProt Q9UQB9)", "assay": "Kd determination", "type": "binding"}, "AXL": {"biological_target": "AXL (Homo sapiens, UniProt P30530)", "assay": "Kd determination", "type": "binding"}, "CSF1R-autoinhibited": {"biological_target": "CSF1R-autoinhibited (Homo sapiens, UniProt P07333)", "sequence (P07333 539-972 limits assumed)": "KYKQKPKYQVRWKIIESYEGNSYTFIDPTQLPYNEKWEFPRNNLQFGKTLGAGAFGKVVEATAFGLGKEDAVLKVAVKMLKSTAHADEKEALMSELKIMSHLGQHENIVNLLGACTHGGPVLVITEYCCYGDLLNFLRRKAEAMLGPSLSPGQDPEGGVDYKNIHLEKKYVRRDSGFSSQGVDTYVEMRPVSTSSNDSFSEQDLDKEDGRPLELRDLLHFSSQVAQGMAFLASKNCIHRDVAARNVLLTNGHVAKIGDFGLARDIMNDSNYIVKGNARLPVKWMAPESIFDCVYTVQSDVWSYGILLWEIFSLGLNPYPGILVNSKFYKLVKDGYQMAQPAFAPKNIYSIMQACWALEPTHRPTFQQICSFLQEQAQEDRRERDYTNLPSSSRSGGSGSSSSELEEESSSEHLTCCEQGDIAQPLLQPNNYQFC", "assay": "Kd determination", "type": "binding"}, "HCK": {"biological_target": "HCK (Homo sapiens, UniProt P08631)", "assay": "Kd determination", "type": "binding"}, "LCK": {"biological_target": "LCK (Homo sapiens, UniProt P06239)", "sequence (P06239 whole entry)": "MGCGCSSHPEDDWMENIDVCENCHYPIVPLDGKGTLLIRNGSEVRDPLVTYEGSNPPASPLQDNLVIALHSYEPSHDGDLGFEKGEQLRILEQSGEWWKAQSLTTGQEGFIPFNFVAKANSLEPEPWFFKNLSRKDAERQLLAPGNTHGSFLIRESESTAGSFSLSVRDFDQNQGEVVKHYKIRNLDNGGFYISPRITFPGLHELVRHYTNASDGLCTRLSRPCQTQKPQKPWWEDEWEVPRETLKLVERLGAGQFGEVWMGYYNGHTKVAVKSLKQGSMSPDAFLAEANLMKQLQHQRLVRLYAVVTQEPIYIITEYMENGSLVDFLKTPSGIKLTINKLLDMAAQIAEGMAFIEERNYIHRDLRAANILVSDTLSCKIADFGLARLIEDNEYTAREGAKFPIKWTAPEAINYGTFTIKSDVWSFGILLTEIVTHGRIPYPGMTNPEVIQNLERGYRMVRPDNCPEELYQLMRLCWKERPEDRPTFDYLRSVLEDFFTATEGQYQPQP", "assay": "Kd determination", "type": "binding"}, "MERTK": {"biological_target": "MERTK (Homo sapiens, UniProt Q12866)", "sequence (Q12866 21-999)": "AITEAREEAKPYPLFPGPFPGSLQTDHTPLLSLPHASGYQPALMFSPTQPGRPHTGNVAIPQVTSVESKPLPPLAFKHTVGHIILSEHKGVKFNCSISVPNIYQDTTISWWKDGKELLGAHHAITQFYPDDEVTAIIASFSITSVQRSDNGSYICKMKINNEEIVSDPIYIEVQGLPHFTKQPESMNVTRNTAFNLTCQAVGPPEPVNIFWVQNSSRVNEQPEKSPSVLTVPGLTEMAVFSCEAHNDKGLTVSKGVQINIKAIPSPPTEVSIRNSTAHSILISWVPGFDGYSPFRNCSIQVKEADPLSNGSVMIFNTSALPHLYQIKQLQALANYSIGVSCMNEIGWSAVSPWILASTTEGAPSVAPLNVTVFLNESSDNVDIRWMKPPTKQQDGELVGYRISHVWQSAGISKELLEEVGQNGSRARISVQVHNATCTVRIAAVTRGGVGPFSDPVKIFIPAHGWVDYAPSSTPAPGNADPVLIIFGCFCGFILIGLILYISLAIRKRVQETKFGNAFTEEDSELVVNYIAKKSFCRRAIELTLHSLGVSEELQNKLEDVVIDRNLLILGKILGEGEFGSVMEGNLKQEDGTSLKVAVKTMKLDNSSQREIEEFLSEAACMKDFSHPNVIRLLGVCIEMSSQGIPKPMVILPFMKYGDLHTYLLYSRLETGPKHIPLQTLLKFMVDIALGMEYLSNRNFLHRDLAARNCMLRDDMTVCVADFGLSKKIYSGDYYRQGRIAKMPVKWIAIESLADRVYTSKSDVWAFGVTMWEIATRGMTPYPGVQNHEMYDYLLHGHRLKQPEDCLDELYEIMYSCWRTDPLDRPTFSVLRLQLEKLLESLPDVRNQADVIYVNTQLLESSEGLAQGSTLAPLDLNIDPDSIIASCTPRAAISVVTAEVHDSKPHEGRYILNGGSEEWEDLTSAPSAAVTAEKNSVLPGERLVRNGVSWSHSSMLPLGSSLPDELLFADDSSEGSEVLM", "assay": "Kd determination", "type": "binding"}, "MINK": {"biological_target": "MINK (Homo sapiens, UniProt Q8N4C8)", "assay": "Kd determination", "type": "binding"}, "PRKCQ": {"biological_target": "PRKCQ (Homo sapiens, UniProt Q04759)", "assay": "Kd determination", "type": "binding"}, "RET (M918T)": {"biological_target": "RET (M918T) (Homo sapiens, UniProt P07949, M918T)", "sequence (P07949 29-1114 M918T)": "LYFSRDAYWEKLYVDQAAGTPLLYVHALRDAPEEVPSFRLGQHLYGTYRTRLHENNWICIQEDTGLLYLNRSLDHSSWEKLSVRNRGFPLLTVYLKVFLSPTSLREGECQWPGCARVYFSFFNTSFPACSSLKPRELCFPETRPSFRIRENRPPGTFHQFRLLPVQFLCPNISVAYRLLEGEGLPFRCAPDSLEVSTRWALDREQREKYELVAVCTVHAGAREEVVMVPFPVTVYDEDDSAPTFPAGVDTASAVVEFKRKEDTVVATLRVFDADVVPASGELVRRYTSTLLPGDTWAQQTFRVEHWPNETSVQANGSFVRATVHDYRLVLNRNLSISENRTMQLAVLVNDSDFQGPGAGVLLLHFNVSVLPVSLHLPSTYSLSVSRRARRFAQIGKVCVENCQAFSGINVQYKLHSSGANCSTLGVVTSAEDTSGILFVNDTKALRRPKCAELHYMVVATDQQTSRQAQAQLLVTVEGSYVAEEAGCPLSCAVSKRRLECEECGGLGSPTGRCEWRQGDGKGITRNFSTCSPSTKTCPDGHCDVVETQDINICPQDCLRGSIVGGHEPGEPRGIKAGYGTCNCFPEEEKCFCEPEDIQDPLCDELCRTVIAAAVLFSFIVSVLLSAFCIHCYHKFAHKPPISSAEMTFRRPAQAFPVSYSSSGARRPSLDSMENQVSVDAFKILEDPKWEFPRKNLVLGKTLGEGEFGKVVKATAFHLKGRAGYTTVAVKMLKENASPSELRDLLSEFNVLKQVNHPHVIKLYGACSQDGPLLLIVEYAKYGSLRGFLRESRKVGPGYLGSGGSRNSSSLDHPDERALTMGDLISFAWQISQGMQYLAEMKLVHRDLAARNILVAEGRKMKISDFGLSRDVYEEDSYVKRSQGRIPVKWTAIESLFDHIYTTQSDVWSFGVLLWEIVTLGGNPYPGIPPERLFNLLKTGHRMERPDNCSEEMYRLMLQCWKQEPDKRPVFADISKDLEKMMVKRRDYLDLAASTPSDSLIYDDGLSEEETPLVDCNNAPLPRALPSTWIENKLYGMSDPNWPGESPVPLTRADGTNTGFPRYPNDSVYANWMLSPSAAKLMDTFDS", "assay": "Kd determination", "type": "binding"}, "RET (V804M)": {"biological_target": "RET (V804M) (Homo sapiens, UniProt P07949, V804M)", "sequence (P07949 29-1114 V804M)": "as the sequence (P07949 29-1114 M918T) above, with V776M, T890M counted along it", "assay": "Kd determination", "type": "binding"}, "SRC": {"biological_target": "SRC (Homo sapiens, UniProt P12931)", "assay": "Kd determination", "type": "binding"}, "TRKA": {"biological_target": "TRKA (Homo sapiens, UniProt P04629)", "sequence (P04629 33-796)": "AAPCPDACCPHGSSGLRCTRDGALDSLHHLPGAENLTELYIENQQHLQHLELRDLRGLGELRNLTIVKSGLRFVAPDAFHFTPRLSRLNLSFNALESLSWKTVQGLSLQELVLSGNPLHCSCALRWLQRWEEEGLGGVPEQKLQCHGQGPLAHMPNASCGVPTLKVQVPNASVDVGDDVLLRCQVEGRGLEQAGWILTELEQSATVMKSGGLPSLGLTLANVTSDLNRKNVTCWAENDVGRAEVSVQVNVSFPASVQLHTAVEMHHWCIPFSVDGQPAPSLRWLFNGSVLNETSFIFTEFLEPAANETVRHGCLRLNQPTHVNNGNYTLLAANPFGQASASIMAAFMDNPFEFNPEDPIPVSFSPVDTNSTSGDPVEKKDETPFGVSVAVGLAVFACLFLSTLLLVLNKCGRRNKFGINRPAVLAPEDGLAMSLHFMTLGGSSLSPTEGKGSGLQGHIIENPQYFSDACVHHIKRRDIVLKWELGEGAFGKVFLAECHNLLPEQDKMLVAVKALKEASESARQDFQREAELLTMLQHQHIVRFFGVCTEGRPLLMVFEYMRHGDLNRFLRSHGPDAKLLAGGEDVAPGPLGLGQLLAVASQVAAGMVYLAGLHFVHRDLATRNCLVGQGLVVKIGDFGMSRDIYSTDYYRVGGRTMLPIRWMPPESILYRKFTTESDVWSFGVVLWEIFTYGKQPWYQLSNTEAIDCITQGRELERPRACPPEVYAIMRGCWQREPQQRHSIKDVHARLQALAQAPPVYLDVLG", "assay": "Kd determination", "type": "binding"}, "TYRO3": {"biological_target": "TYRO3 (Homo sapiens, UniProt Q06418)", "sequence (Q06418 41-890)": "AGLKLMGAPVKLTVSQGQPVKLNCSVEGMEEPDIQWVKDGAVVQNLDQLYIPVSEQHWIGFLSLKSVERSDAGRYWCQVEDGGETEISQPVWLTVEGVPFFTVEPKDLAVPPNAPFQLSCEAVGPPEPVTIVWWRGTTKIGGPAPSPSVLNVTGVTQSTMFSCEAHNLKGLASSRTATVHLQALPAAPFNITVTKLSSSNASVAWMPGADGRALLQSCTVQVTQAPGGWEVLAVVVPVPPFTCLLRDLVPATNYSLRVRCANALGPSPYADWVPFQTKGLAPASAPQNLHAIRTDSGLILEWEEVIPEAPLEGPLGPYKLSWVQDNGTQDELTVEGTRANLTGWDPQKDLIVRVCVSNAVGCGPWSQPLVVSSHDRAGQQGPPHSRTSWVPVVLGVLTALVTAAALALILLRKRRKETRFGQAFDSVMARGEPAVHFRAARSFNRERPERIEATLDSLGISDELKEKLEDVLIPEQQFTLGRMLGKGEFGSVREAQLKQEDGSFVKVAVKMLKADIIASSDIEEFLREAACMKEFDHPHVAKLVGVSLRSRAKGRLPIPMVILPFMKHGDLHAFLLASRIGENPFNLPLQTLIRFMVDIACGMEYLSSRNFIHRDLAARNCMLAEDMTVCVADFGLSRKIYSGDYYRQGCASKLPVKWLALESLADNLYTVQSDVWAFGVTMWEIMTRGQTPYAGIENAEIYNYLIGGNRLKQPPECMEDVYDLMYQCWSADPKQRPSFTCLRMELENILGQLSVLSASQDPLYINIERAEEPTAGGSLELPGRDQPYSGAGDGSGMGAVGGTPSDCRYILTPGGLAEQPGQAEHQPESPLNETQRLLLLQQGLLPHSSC", "assay": "Kd determination", "type": "binding"}, "MV4-11 cells": {"tested_on": "MV4-11 cells", "assay": "MV4-11 cell proliferation", "type": "cell-based"}, "Plasma stability [2]": {"assay": "Plasma stability", "type": "in vitro ADME", "conditions": "rat"}, "Plasma stability [3]": {"assay": "Plasma stability", "type": "in vitro ADME", "conditions": "human"}, "PBS stability": {"assay": "PBS stability", "type": "physicochemical"}, "Simulated gastric fluid": {"assay": "Simulated gastric fluid", "type": "physicochemical"}, "[4]": {"assay": "In vivo pharmacokinetic study", "design": "species or system mouse"}, "[5]": {"biological_target": "JAK1 (JH2 domain-pseudokinase) (Homo sapiens, UniProt P23458)", "assay": "Kd determination", "type": "binding"}, "[6]": {"biological_target": "TYK2 (JH1 domain-catalytic) (Homo sapiens, UniProt P29597)", "assay": "Kd determination", "type": "binding"}, "[7]": {"conditions": "female, C57BL/6, mouse, plasma, ip, 3 mg/kg"}, "[8]": {"conditions": "female, C57BL/6, mouse, plasma, ip, 5 mg/kg"}, "[9]": {"conditions": "female, C57BL/6, mouse, plasma, ip, 10 mg/kg"}}}
{"smiles": "c1cncc(-c2cccc(Nc3nccc(NC4CCCCC4)n3)c2)c1", "note": "[Compound 1, N^4-Cyclohexyl-N^2-(3-(pyridin-3-yl)phenyl)pyrimidine-2,4-diamine]", "values": [{"measurement": "Kd", "setting": "[1]", "result": 2100, "unit": "nM"}, {"measurement": "Kd", "setting": "AURKA", "result": 1600, "unit": "nM"}, {"measurement": "Kd", "setting": "AURKC", "result": "> 10", "unit": "µM"}, {"measurement": "Kd", "setting": "AXL", "result": 2100, "unit": "nM"}, {"measurement": "Kd", "setting": "CSF1R-autoinhibited", "result": 1500, "unit": "nM"}, {"measurement": "Kd", "setting": "HCK", "result": 2100, "unit": "nM"}, {"measurement": "Kd", "setting": "LCK", "result": 2900, "unit": "nM"}, {"measurement": "Kd", "setting": "MERTK", "result": 2800, "unit": "nM"}, {"measurement": "Kd", "setting": "MINK", "result": 2500, "unit": "nM"}, {"measurement": "Kd", "setting": "PRKCQ", "result": 1600, "unit": "nM"}, {"measurement": "Kd", "setting": "RET (M918T)", "result": 1200, "unit": "nM"}, {"measurement": "Kd", "setting": "RET (V804M)", "result": 1400, "unit": "nM"}, {"measurement": "Kd", "setting": "SRC", "result": 1100, "unit": "nM"}, {"measurement": "Kd", "setting": "TRKA", "result": 1100, "unit": "nM"}, {"measurement": "Kd", "setting": "TYRO3", "result": 2700, "unit": "nM"}]}
{"smiles": "CC(C)Nc1ccnc(Nc2cccc(-c3cccnc3)c2)n1", "note": "[Compound 5e, N^4-Isopropyl-N^2-(3-(pyridin-3-yl)phenyl)pyrimidine-2,4-diamine]", "values": [{"measurement": "fold improvement in MV4-11 growth inhibition relative to 1", "setting": "MV4-11 cells", "result": "approximately 10 fold"}, {"measurement": "plasma stability", "setting": "Plasma stability [2]", "result": ">48", "unit": "h"}, {"measurement": "plasma stability", "setting": "Plasma stability [3]", "result": ">48", "unit": "h"}, {"measurement": "PBS stability", "setting": "PBS stability; pH = 3.0", "result": ">48", "unit": "h"}, {"measurement": "PBS stability", "setting": "PBS stability; pH = 5.0", "result": ">48", "unit": "h"}, {"measurement": "PBS stability", "setting": "PBS stability; pH = 7.4", "result": ">48", "unit": "h"}, {"measurement": "SGF stability", "setting": "Simulated gastric fluid", "result": ">48", "unit": "h"}, {"measurement": "AUC", "setting": "[4]; [7]", "result": 0.183, "unit": "µM·h"}, {"measurement": "Tmax", "setting": "[4]; [7]", "result": 4.98, "unit": "min"}, {"measurement": "Cmax", "setting": "[4]; female, C57BL/6, mouse, plasma, ip, 3 mg/kg, Cmax, mice", "result": 327, "unit": "nM"}, {"measurement": "half-life", "setting": "[4]; female, C57BL/6, mouse, plasma, ip, 3 mg/kg, T1/2, mice", "result": 13.8, "unit": "min"}, {"measurement": "AUC", "setting": "[4]; [8]", "result": 0.683, "unit": "µM·h"}, {"measurement": "Tmax", "setting": "[4]; [8]", "result": 4.98, "unit": "min"}, {"measurement": "Cmax", "setting": "[4]; female, C57BL/6, mouse, plasma, ip, 5 mg/kg, Cmax, mice", "result": 927, "unit": "nM"}, {"measurement": "half-life", "setting": "[4]; female, C57BL/6, mouse, plasma, ip, 5 mg/kg, T1/2, mice", "result": 32.4, "unit": "min"}, {"measurement": "AUC", "setting": "[4]; [9]", "result": 0.953, "unit": "µM·h"}, {"measurement": "Tmax", "setting": "[4]; [9]", "result": 15, "unit": "min"}, {"measurement": "Cmax", "setting": "[4]; female, C57BL/6, mouse, plasma, ip, 10 mg/kg, Cmax, mice", "result": 1620, "unit": "nM"}, {"measurement": "half-life", "setting": "[4]; female, C57BL/6, mouse, plasma, ip, 10 mg/kg, T1/2, mice", "result": 60, "unit": "min"}, {"measurement": "half-life", "setting": "[4]; female, C57BL/6, mouse, plasma, ip, 10 mg/kg, half-life, mice, across 3, 5 and 10 mg/kg", "result": "13.8 to 60", "unit": "min"}, {"measurement": "Cl", "setting": "[4]; mice, i.p., 3 mg/kg", "result": 50.7, "unit": "L/h/kg"}, {"measurement": "Cmax", "setting": "[4]; mice, i.p., 3 mg/kg", "result": 376, "unit": "nM"}, {"measurement": "Vz", "setting": "[4]; mice, i.p., 3 mg/kg", "result": 16.7, "unit": "L/kg"}, {"measurement": "Cl", "setting": "[4]; mice, i.p., 5 mg/kg", "result": 23.8, "unit": "L/h/kg"}, {"measurement": "Vz", "setting": "[4]; mice, i.p., 5 mg/kg", "result": 18.6, "unit": "L/kg"}, {"measurement": "Cl", "setting": "[4]; mice, i.p., 10 mg/kg", "result": 33.1, "unit": "L/h/kg"}, {"measurement": "Cmax", "setting": "[4]; mice, i.p., 10 mg/kg", "result": 1650, "unit": "nM"}, {"measurement": "Vz", "setting": "[4]; mice, i.p., 10 mg/kg", "result": 47.3, "unit": "L/kg"}, {"measurement": "Kd", "setting": "[5]", "result": 28, "unit": "nM"}, {"measurement": "Kd", "setting": "[6]", "result": 740, "unit": "nM"}]}
